This note sets out measurements from patent US3974140A, “Ureidoacetamido-penicillins” (Bayer Aktiengesellschaft, priority 1970, dated 1976).

Holding throughout (assay): MIC, liquid medium test tube series dilution test
The test system of one assay is E. coli 14. The class given is cell-based. The note with it: E. coli 14, 24 hours, 37°C. The essentials: (§1)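 Liquid-medium tube serial dilution in complete nutrient medium, read after 24 h incubation at 37°C. MIC is the lowest concentration giving a non-turbid tube, expressed in units/ml.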
The next assay concerns E. coli 183/58. It counts as cell-based. The following applies: E. coli 183/58, 24 hours, 37°C. The essentials:
as §1

The test system of a further assay is E. coli A 261. It counts as cell-based. The note with it: E. coli A 261, 24 hours, 37°C. The essentials: as §1
The next assay deals with E. coli C 165. It counts as cell-based. The following applies: E. coli C 165, 24 hours, 37°C. The essentials:
as §1

The subject of the next assay is Klebsiella 63. The class given is cell-based. The note with it: Klebsiella 63, 24 hours, 37°C. The essentials: as §1
The test system of a further assay is Klebsiella K 10. It counts as cell-based. The note with it: Klebsiella K 10, 24 hours, 37°C. The essentials:
as §1

Assay [1] concerns Streptoc. faec. ATCC 9790. The class given is cell-based. The note with it: Strep. faec. (Enterococcus) ATCC 9790, 24 hours, 37°C. The essentials: as §1
In another assay the test system is Proteus vulg. 1017. The class given is cell-based, Proteus vulgaris. The following applies: Proteus vulg. 1017, 24 hours, 37°C. The essentials: as §1
In another assay the test system is Proteus vulg. 3400. It counts as cell-based, Proteus vulgaris. The note with it: Proteus vulg. 3400, 24 hours, 37°C. The essentials:
as §1

The next assay concerns Psdm. aerug. Bonn. The class given is cell-based, Pseudomonas aerug. The note with it: 24 hours, 37°C. The essentials:
as §1

The subject of a further assay is Psdm. aerug. Walter. It counts as cell-based, Pseudomonas aerug. The following applies: 24 hours, 37°C. The essentials: as §1
Another assay relates to Staph. aureus 133. The class given is cell-based, Staphylococcus aureus. The note with it: Staph. aureus 133, 24 hours, 37°C. The essentials: as §1
A further assay has as its system Staph. aureus 1777 E. It counts as cell-based, Staphylococcus aureus. The note with it: 24 hours, 37°C. The essentials: as §1

The structures appear in SMILES notation.

For `COC(=O)N(C)C(=O)N[C@@H](C(=O)N[C@@H]1C(=O)N2[C@@H]1SC(C)(C)[C@@H]2C(=O)O)c1c(Cl)cccc1Cl` [Example 7, Sodium D(-)-α-(3-methoxycarbonyl-3-methyl-ureido)-2,6-dichlorobenzylpenicillin], the MIC with E. coli 14 is 100-500 units/ml; in the assay with E. coli 183/58, 100-500 units/ml; against E. coli A 261, greater than 500 units/ml; in the assay with E. coli C 165, 100-500 units/ml; with Klebsiella 63 it was greater than 500 units/ml; against Klebsiella K 10, greater than 500 units/ml. Moreover, the MIC is recorded as 100-500 units/ml in assay [1]; ~ 500 units/ml against Proteus vulg. 1017; 100-500 units/ml with Proteus vulg. 3400; 100-500 units/ml in the assay with Psdm. aerug. Bonn; greater than 500 units/ml with Psdm. aerug. Walter; 0.8-4 units/ml against Staph. aureus 133. For the same compound, the MIC against Staph. aureus 1777 E was 100-500 units/ml.

Regarding `COC(=O)N(C)C(=O)N[C@H](C(=O)N[C@@H]1C(=O)N2[C@@H]1SC(C)(C)[C@@H]2C(=O)O)c1c(Cl)cccc1Cl` [Example 8, Sodium L(+)-α-(3-methoxycarbonyl-3-methyl-ureido)-2,6-dichlorobenzylpenicillin], the MIC against E. coli 14, against E. coli 183/58, with E. coli A 261, with E. coli C 165, in the assay on Klebsiella 63 and in the assay on Klebsiella K 10 was greater than 500 units/ml each time. Further, the MIC is greater than 500 units/ml in [1]; greater than 500 units/ml with Proteus vulg. 1017; greater than 500 units/ml against Proteus vulg. 3400; greater than 500 units/ml in the assay with Psdm. aerug. Bonn; greater than 500 units/ml in the assay with Psdm. aerug. Walter; 4-20 units/ml in the assay on Staph. aureus 133. In addition, the MIC in the assay on Staph. aureus 1777 E is reported as 100-500 units/ml.

Consider `CC1(C)S[C@@H]2[C@H](NC(=O)[C@H](NC(=O)N3CCNC3=O)c3ccccc3)C(=O)N2[C@H]1C(=O)O` [Example 52, D(-)-α-[(Imidazolidin-2-on-1-yl)-carbonylamino]-benzylpenicillin], for which the MIC is 3,12 units/ml in the assay on E. coli 14; 6,25 units/ml with E. coli 183/58; greater than 400 units/ml against E. coli A 261; 12,5 units/ml against E. coli C 165; 100 units/ml with Klebsiella K 10; 12,5 units/ml with Psdm. aerug. Bonn. For the same compound, the MIC with Psdm. aerug. Walter is 12,5 units/ml; in the assay on Staph. aureus 133, < 0,78 units/ml; against Staph. aureus 1777 E, 200 units/ml.

Turning to `C=CCN(C(=O)N[C@@H](C(=O)N[C@@H]1C(=O)N2[C@@H]1SC(C)(C)[C@@H]2C(=O)O)c1ccccc1)C(=O)c1ccccc1` [Example 90, Sodium D(-)-α-(3-benzoyl-3-allyl-ureido)-benzylpenicillin], the MIC in the assay with E. coli 14 worked out at 6.25 units/ml; with E. coli 183/58, 12.5 units/ml; against E. coli A 261, 400 units/ml; against E. coli C 165, 12.5 units/ml; in the assay on Klebsiella 63, 25 units/ml; against Klebsiella K 10, 50 units/ml. Further, the MIC in [1] amounted to 100 units/ml; in the assay with Proteus vulg. 1017, 12.5 units/ml; with Proteus vulg. 3400 it was 25 units/ml; with Psdm. aerug. Bonn, 25 units/ml; against Psdm. aerug. Walter it was 50 units/ml; in the assay on Staph. aureus 1777 E it was 50 units/ml.

Take `CCC(=O)N(C)C(=O)N[C@@H](C(=O)N[C@@H]1C(=O)N2[C@@H]1SC(C)(C)[C@@H]2C(=O)O)c1ccccc1` [Example 113, Sodium D(-)-α-(3-propionyl-3-methyl-ureido)-benzylpenicillin]: the MIC is reported as 0.8-4 units/ml against E. coli C 165; 100-500 units/ml in the assay with Klebsiella 63; 4-20 units/ml against Proteus vulg. 1017; 4-20 units/ml against Psdm. aerug. Walter; 0.8 units/ml in the assay with Staph. aureus 133; 100-500 units/ml in the assay on Staph. aureus 1777 E.

Turning to `CCN(C(C)=O)C(=O)N[C@@H](C(=O)N[C@@H]1C(=O)N2[C@@H]1SC(C)(C)[C@@H]2C(=O)O)c1ccccc1` [Example 114, Sodium D(-)-α-(3-acetyl-3-ethyl-ureido)-benzylpenicillin], the MIC in the assay with E. coli C 165 is 4-20 units/ml; with Klebsiella 63, 100-500 units/ml; with Proteus vulg. 1017, 20-100 units/ml; in the assay on Psdm. aerug. Walter, 4-20 units/ml; against Staph. aureus 133 it was 0.8 units/ml; against Staph. aureus 1777 E, 100-500 units/ml.

For the compound `CCCN(C(C)=O)C(=O)N[C@@H](C(=O)N[C@@H]1C(=O)N2[C@@H]1SC(C)(C)[C@@H]2C(=O)O)c1ccccc1` [Example 115, Sodium D(-)-α-(3-acetyl-3-n-propyl-ureido)-benzylpenicillin], the MIC is recorded as 20-100 units/ml in the assay on E. coli C 165; 100-500 units/ml in the assay with Klebsiella 63; 20-100 units/ml against Proteus vulg. 1017; 20-100 units/ml against Psdm. aerug. Walter; 0.8 units/ml against Staph. aureus 133; 100-500 units/ml against Staph. aureus 1777 E.

As to `CC(C)C(=O)N(C)C(=O)N[C@@H](C(=O)N[C@@H]1C(=O)N2[C@@H]1SC(C)(C)[C@@H]2C(=O)O)c1ccccc1` [Example 116, Sodium D(-)-α-(3-i-butyryl-3-methyl-ureido)-benzylpenicillin], the MIC against E. coli C 165 is 4-20 units/ml; in the assay with Klebsiella 63 it was 20-100 units/ml; with Proteus vulg. 1017 it was 4-20 units/ml; with Psdm. aerug. Walter, roughly 20 units/ml; with Staph. aureus 133 it was 0.8 units/ml; with Staph. aureus 1777 E, 100-500 units/ml.

Take `CN(C(=O)N[C@@H](C(=O)N[C@@H]1C(=O)N2[C@@H]1SC(C)(C)[C@@H]2C(=O)O)c1ccccc1)C(=O)c1ccccc1[N+](=O)[O-]` [Example 140, Sodium D(-)-α-(3-o-nitrobenzoyl-3-methyl-ureido)-benzylpenicillin]: the MIC was found to be 0.8 units/ml in the assay on E. coli 14; 1.6 units/ml with E. coli 183/58; 50 units/ml in the assay with E. coli A 261; 3.1 units/ml against E. coli C 165; 25 units/ml against Klebsiella 63; 12.5 units/ml in the assay on Klebsiella K 10. Also, the MIC in [1] was 12.5 units/ml; in the assay on Proteus vulg. 1017 it was 3.1 units/ml; with Proteus vulg. 3400, 6.25 units/ml; against Psdm. aerug. Bonn it was 12.5 units/ml; against Psdm. aerug. Walter, 12.5 units/ml; against Staph. aureus 133 it was less than 0.8 units/ml.

As to `CN(C(=O)N[C@@H](C(=O)N[C@@H]1C(=O)N2[C@@H]1SC(C)(C)[C@@H]2C(=O)O)c1ccccc1)C(=O)c1ccc(Cl)cc1Cl` [Example 142, Sodium D(-)-α-(3-[2,4-dichlorobenzoyl]-3-methyl-ureido)-benzylpenicillin], the MIC against E. coli 14 is 0.8 units/ml; against E. coli 183/58, 1.6 units/ml; in the assay on E. coli A 261, 50 units/ml; with E. coli C 165, 3.1 units/ml; in the assay on Klebsiella 63, 25 units/ml; against Klebsiella K 10, 12.5 units/ml. For the same compound, the MIC in assay [1] was 25 units/ml; in the assay on Proteus vulg. 1017, 3.1 units/ml; in the assay with Proteus vulg. 3400 it was 12.5 units/ml; against Psdm. aerug. Bonn, 25 units/ml; against Psdm. aerug. Walter it was 12.5 units/ml; in the assay with Staph. aureus 133, less than 0.8 units/ml.

In the case of `CCC(=O)N(C(=O)N[C@@H](C(=O)N[C@@H]1C(=O)N2[C@@H]1SC(C)(C)[C@@H]2C(=O)O)c1ccccc1)c1ccccc1` [Example 143, Sodium D(-)-α-(3-propionyl-3-phenyl-ureido)-benzylpenicillin], the MIC with E. coli 14 was 12.5 units/ml; in the assay with E. coli 183/58, 50 units/ml; in the assay with E. coli A 261, greater than 400 units/ml; with E. coli C 165, 50 units/ml; against Klebsiella 63, 100 units/ml; in the assay on Klebsiella K 10, 50 units/ml. Also, the MIC was 100 units/ml in assay [1]; 200 units/ml in the assay on Proteus vulg. 1017; 400 units/ml in the assay on Proteus vulg. 3400; 200 units/ml in the assay on Psdm. aerug. Bonn; 200 units/ml against Psdm. aerug. Walter; less than 0.8 units/ml in the assay on Staph. aureus 133.
